Legend:
[1] = tested on: NFKBIA; experiment: qPCR NFKBIA expression in HeLa cells (GR transactivation); type: cell-based, human; settings: beclomethasone 1 μM, Rg1 50 μM or combination
Procedure: HeLa (human cervical cancer) cells were cultured in Dulbecco's Modified Eagle's (DMEM) High Glucose (HG) medium without phenol red supplemented with 10% Fetal Calf Serum (FCS) and 10% Glutamax (Sigma-Aldrich). The cells were maintained at 37° C. and 5% CO2. At 24 h before adding the treatment, the medium was replaced by DMEM HG with 10% charcoal-inactivated serum and 10% Glutamax (Sigma-Aldrich). The cells were exposed to short- and long-term compound treatments. […] Subsequently, TNF-α (10 ng/ml) was added along with the compound treatments for 6 h (this last step was not added in the actinomycin-D and cycloheximide experiments).
(§1) To determine levels of gene expression in zebrafish larvae, 3 dpf larvae were used in both wounded and non-wounded conditions, and after short- and long-term treatments. Groups of 15 larvae were collected in TRIzol reagent (ThermoFisher) and total RNA was isolated using miRNeasy mini kit (Qiagen, Hilden, Germany). For experiments in HeLa cells, cells were seeded in 6 well plates and after treatment, the cells were removed from the wells using TRIzol reagent and mRNA was isolated using miRNeasy mini kit (Qiagen) according to the manufacturer's instructions. The RNA samples were DNAse-treated utilizing the DNA-free™ DNA Removal Kit (ThermoFisher Scientific). The cDNA synthesis was performed using the iScript cDNA synthesis kit (Bio-Rad Laboratories, Hercules, CA, USA) using 1 μg of RNA per sample. For qPCR, 10 μM of forward primer and 10 μM of reverse primer, 12.5 μl of IQ SYBR Green Supermix (Bio-Rad Laboratories), and 2 μl of cDNA were added to the qPCR reaction mixture. […] The qPCR reactions were performed on a MyiQ-single-color real-time PCR detection system (Bio-Rad Laboratories), with initial denaturation for 3 min, 95° C., and 40 cycles of 15 s at 95.5° C., 15 s at 60° C., and 30 s at 72° C. Cycle threshold values (Ct values, i.e. the cycle numbers at which a threshold value of the fluorescence intensity was reached) were determined for each sample. The gene expression level for each sample was normalized using the expression of ppial (peptidylprolyl isomerase Ab (cyclophilin A)) for zebrafish samples, and 18S rRNA for human cells. The fold change per sample (compared to the respective control group) was calculated using the […]Ct method.

[2] = tested on: il6; experiment: qPCR il6 expression in zebrafish larvae; type: in vivo, zebrafish (Danio rerio); settings: for il6 expression after wounding: 10 μM beclomethasone, 50 μM Rg1 or combination, 4 h after wounding
Procedure: as §1, with “The gene expression level for each sample was normalized using the expression of ppial (peptidylprolyl isomerase Ab (cyclophilin A)) for zebrafish samples, and 18S rRNA for human cells.” left out
To determine mRNA levels of specific genes in zebrafish, 3 dpf larvae were used (wounded and non-wounded) and after 6 h of chemical treatments (2 h pre-wounding, 4 h post-wounding), as indicated. […] Cycle threshold values (Ct values, i.e. the cycle numbers at which a threshold value of the fluorescence intensity was reached) were determined for each sample. […] The fold change per sample (compared to the respective control group) was calculated using the ΔΔCt method.

[3] = tested on: il1b; settings: previously shown, ref [17]; cited from earlier work

Structure (SMILES) | NFKBIA expression, long-term [1] | NFKBIA expression, short-term [1] | il6 expression after wounding [2] | il1b expression after wounding [3] | il6 expression ([2]; Example 2, wounded larvae)
CC(C)=CCC[C@](C)(O[C@@H]1O[C@H](CO)[C@@H](O)[C@H](O)[C@H]1O)[C@H]1CC[C@]2(C)[C@@H]1[C@H](O)C[C@@H]1[C@@]3(C)CC[C@H](O)C(C)(C)[C@@H]3[C@@H](O[C@@H]3O[C@H](CO)[C@@H](O)[C@H](O)[C@H]3O)C[C@]12C [Rg1, (3β,6α, 12β)-3,12-Dihydroxydammar-24-ene-6,20-diyl bis-β-D-glucopyranoside] | did not affect the expression of these genes | did not affect the expression of these genes | slightly decreased the expression of these genes | transrepressed | 
C[C@H]1C[C@H]2[C@@H]3CCC4=CC(=O)C=C[C@]4(C)[C@@]3(Cl)[C@@H](O)C[C@]2(C)[C@@]1(O)C(=O)CO [beclomethasone, reference compound] | reduced over time | strongly increased the expression of these genes after short-term treatment | slightly decreased the expression of these genes | transrepressed | suppressed the expression levels of il1b, il6 and mmp9, similarly to Bec

Source: patent publication US20260306525A1, “COMBINATION THERAPY GLUCOCORTICOIDS AND GINSENOSIDE” (FYTAGORAS B.V., priority 2023, published 2026)
